{
  "source": "paper PMC6067878",
  "about": "“Lipoate-binding proteins and specific lipoate-protein ligases in microbial sulfur oxidation reveal an atpyical role for an old cofactor” (eLife, 2018)",
  "key": {"[1]": {"biological_target": "T1, TkLbpA1 (lipoate-binding protein LbpA1, TK90_0638) (Thioalkalivibrio sp. K90mix, UniProt D3SF86)", "T1 construct": "Strep- or His-tagged (pET22b), made in E. coli as apoprotein", "T1 sequence (D3SF86 1-148)": "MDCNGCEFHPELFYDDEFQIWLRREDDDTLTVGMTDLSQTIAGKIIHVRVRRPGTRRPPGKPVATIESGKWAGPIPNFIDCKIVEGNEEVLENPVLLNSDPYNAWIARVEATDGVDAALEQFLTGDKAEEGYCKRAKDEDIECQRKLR", "test": "MALDI mass spectrometry of enzymatic lipoylation", "details": "covalent; lipoyl group attached to apo-protein by TkLplA with ATP, 37 °C"}, "[2]": {"biological_target": "T2, TkLbpA2 (lipoate-binding protein LbpA2, TK90_0640) (Thioalkalivibrio sp. K90mix, UniProt D3SF88)", "T2 construct": "gene gcvH; Strep- or His-tagged (pET22b), made in E. coli as apoprotein", "T2 sequence (D3SF88 1-145)": "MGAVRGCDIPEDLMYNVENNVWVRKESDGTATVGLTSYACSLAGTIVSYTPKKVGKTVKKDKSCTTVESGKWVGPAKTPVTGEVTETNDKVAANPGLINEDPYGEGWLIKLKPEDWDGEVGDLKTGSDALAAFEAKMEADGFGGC", "test": "MALDI mass spectrometry of enzymatic lipoylation", "details": "covalent; lipoyl group attached to apo-protein by TkLplA with ATP, 37 °C"}, "[3]": {"biological_target": "T3, TkLplA (LplA-like lipoate-protein ligase, TK90_0642) (Thioalkalivibrio sp. K90mix, UniProt D3SF90)", "T3 construct": "Strep- or His-tagged (pET22b), made in E. coli; single-domain ligase lacking the small domain", "T3 sequence (D3SF90 1-363)": "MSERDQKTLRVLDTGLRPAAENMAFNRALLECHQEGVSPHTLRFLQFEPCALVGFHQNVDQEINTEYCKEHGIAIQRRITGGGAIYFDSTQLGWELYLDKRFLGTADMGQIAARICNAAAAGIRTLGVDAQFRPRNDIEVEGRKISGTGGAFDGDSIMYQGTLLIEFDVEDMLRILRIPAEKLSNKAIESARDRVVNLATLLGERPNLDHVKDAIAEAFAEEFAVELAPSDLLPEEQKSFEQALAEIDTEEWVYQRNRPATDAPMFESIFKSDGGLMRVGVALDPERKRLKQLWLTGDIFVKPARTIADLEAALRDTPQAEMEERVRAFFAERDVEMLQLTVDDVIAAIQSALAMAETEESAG", "test": "TLC of lipoyl-AMP from [alpha-32P]ATP; MALDI of lipoylated acceptor", "assay_type": "biochemical", "details": "Mg2+, 50 mM sodium phosphate pH 7.8, 37 °C (adenylation), acceptors TkLbpA1 and TkLbpA2"}},
  "data": [
    {"compound": "O=C(O)CCCC[C@@H]1CCSS1", "note": "(racemic) [lipoic acid, 1,2-dithiolane-3-pentanoic acid]", "values": [
      {"measurement": "MALDI mass spectrometry of enzymatic lipoylation", "setting": "[1]", "value": "The overall lipoate ligase activity of LplA-like proteins was confirmed by mass spectrometry"},
      {"measurement": "MALDI mass spectrometry of enzymatic lipoylation", "setting": "[2]", "value": "The overall lipoate ligase activity of LplA-like proteins was confirmed by mass spectrometry"},
      {"measurement": "TLC of lipoyl-AMP from [alpha-32P]ATP; MALDI of lipoylated acceptor", "setting": "[3]", "value": "synthesis of both octanoyl-adenylate and lipoyl-adenylate intermediates were readily demonstrated"}
    ]}
  ]
}
